Source: the NIST ThermoML archive (doi:10.1021/acs.jced.8b00302)
± gives the expanded uncertainty stated by the source.

Assay: wn = mass fraction of the nth substance listed
Details: 298.2 K, 100 kPa, Liquid, Gravity bottle method

| mass density (w1 = 0.3365) [kg/m3] | mass density (w1 = 0.6463) [kg/m3] | mass density (w1 = 0.2743) [kg/m3] | SMILES |
| --- | --- | --- | --- |
| 1363.1 ± 10 | 2016.2 ± 10 | – | O=S(=O)([O-])[O-].[Cs+].[Cs+] [cesium sulfate] + O |
| – | – | 1293 ± 10 | O=S(=O)([O-])[O-].[Mg+2] [magnesium sulfate] + O |
| – | 2016.2 ± 10 | – | O=S(=O)([O-])[O-].[Rb+].[Rb+] [rubidium sulfate] + O |
